Data reported in patent US20090087845A1, “Genetic Markers Of True Low Birth Weight” (priority 2005, published 2009).

System: placental gene expression
[1] = rat placenta, 0, 5%, 10% in drinking water
[2] = rat placenta, 5% in drinking water throughout pregnancy
[3] = rat placenta, 5% or 10% in drinking water throughout pregnancy, p<0.05 in both t-tests
[4] = rat placenta, 10% in drinking water throughout pregnancy

With CCO [alcohol] the “Mean 10%, Pex6 (1368264_at)” value (10% alcohol group, Mean Contr 6.259265) was 5.303, the “Mean 10%, St3gal3 (1373607_at)” value (10% alcohol group, Mean Contr 6.298338) was 5.59 and the “Mean 10%, Kbtbd4_predicted (1374614_at)” value (10% alcohol group, Mean Contr 6.314496) was 5.325. The “Mean 10%, Phyh (1393245_at)” value (10% alcohol group, Mean Contr 6.483711) was 5.227, the “Mean 10%, LOC287533 (1373627_at)” value (10% alcohol group, Mean Contr 6.526312) was 5.351 and the “Mean 10%, Transcribed locus (1388465_at)” value (10% alcohol group, Mean Contr 6.549543) was 5.667. For the same compound, the “Mean 10%, Mss4 (1376745_at)” value (10% alcohol group, Mean Contr 6.629539) was 5.49, the “Mean 10%, Plag1 (1391714_at)” value (10% alcohol group, Mean Contr 6.670053) was 5.554 and the “Mean 10%, Sumf1_predicted (1389833_at)” value (10% alcohol group, Mean Contr 6.839621) was 5.774. For the same compound, the “Mean 10%, Polr3e_predicted (1374415_at)” value (10% alcohol group, Mean Contr 6.849002) was 5.78, the “Mean 10%, RGD1308959 (1399108_at)” value (10% alcohol group, Mean Contr 6.859582) was 5.829 and the “Mean 10%, Wig1 (1387021_at)” value (10% alcohol group, Mean Contr 6.895168) was 5.95. The “Mean 10%, probe set 1379314_at” value (10% alcohol group, Mean Contr 6.970231) was 5.514, the “Mean 10%, Ddx59 (1383635_at)” value (10% alcohol group, Mean Contr 6.981191) was 6.018 and the “Mean 10%, Rnd3 (1394077_at)” value (10% alcohol group, Mean Contr 7.018906) was 6.069. The “Mean 10%, probe set 1393037_at” value (10% alcohol group, Mean Contr 7.020197) was 6.384, the “Mean 10%, Slc39a4_predicted (1374366_at)” value (10% alcohol group, Mean Contr 7.252498) was 5.652 and the “Mean 10%, RGD1305243_predicted (1374076_at)” value (10% alcohol group, Mean Contr 7.300542) was 6.175. The “Mean 10%, Transcribed locus (1393310_at)” value (10% alcohol group, Mean Contr 7.364799) was 5.834, the “Mean 10%, Gusb (1367901_at)” value (10% alcohol group, Mean Contr 7.420203) was 6.432 and the “Mean 10%, probe set 1392953_at” value (10% alcohol group, Mean Contr 7.435411) was 6.103. For the same compound, the “Mean 10%, Crsp9_predicted (1377263_at)” value (10% alcohol group, Mean Contr 7.471023) was 5.974, the “Mean 10%, probe set 1389582_at” value (10% alcohol group, Mean Contr 7.588214) was 6.297 and the “Mean 10%, Transcribed locus (1393226_at)” value (10% alcohol group, Mean Contr 7.705027) was 6.077. For the same compound, the “Mean 10%, RGD1565289_predicted (1375297_at)” value (10% alcohol group, Mean Contr 7.731478) was 6.615, the “Mean 10%, Zfp207 (1394591_at)” value (10% alcohol group, Mean Contr 8.125942) was 6.769 and the “Mean 10%, Akr7a2 (1367843_at)” value (10% alcohol group, Mean Contr 8.276972) was 6.866. The “Mean 10%, Tparl (1373392_at)” value (10% alcohol group, Mean Contr 8.308305) was 7.589, the “Mean 10%, Mcts1 (1388660_at)” value (10% alcohol group, Mean Contr 8.623529) was 7.771 and the “Mean 10%, Hadhsc (1370237_at)” value (10% alcohol group, Mean Contr 8.793343) was 8.015. For the same compound, the “Mean 10%, Asah1 (1374770_at)” value (10% alcohol group, Mean Contr 9.074708) was 7.952, the “Mean 10%, Arts1 (1368356_a_at)” value (10% alcohol group, Mean Contr 9.55972) was 8.725 and the “Mean 10%, Ndufb5_predicted (1388304_at)” value (10% alcohol group, Mean Contr 10.12286) was 9.267. For the same compound, the “Mean 10%, MGC72992 (1389325_at)” value (10% alcohol group, Mean Contr 10.24563) was 9.571, the “Mean 10%, Vps35_mapped (1372806_at)” value (10% alcohol group, Mean Contr 10.46183) was 9.969 and the “sig down and spec alc, Arts1 (1368356_a_at)” value (contr vs 5% vs 10% alcohol) was “YES”. For the same compound, the “sig down and spec alc, Cdca7 (1374540_at)” value (contr vs 5% vs 10% alcohol) was “YES”, the “sig down and spec alc, Centa2 (1369725_at)” value (contr vs 5% vs 10% alcohol) was “YES” and the “sig down and spec alc, Crsp9_predicted (1377263_at)” value (contr vs 5% vs 10% alcohol) was “YES”. For the same compound, the “sig down and spec alc, Cul2_predicted (1378127_at)” value (contr vs 5% vs 10% alcohol) was “YES”, the “sig down and spec alc, Ddx59 (1383635_at)” value (contr vs 5% vs 10% alcohol) was “YES” and the “sig down and spec alc, Ggps1 (1377866_a_at)” value (contr vs 5% vs 10% alcohol) was “YES”. For the same compound, the “sig down and spec alc, Gusb (1367901_at)” value (contr vs 5% vs 10% alcohol) was “YES”, the “sig down and spec alc, Hadhsc (1370237_at)” value (contr vs 5% vs 10% alcohol) was “YES” and the “sig down and spec alc, Mcpt6 (1387334_at)” value (contr vs 5% vs 10% alcohol) was “YES”. For the same compound, the “sig down and spec alc, Ndufb5_predicted (1388304_at)” value (contr vs 5% vs 10% alcohol) was “YES”, the “sig down and spec alc, Pex6 (1368264_at)” value (contr vs 5% vs 10% alcohol) was “YES” and the “sig down and spec alc, Prdm2_mapped (1381229_at)” value (contr vs 5% vs 10% alcohol) was “YES”. The “sig down and spec alc, RGD1305243_predicted (1374076_at)” value (contr vs 5% vs 10% alcohol) was “YES”, the “sig down and spec alc, RGD1565289_predicted (1375297_at)” value (contr vs 5% vs 10% alcohol) was “YES” and the “sig down and spec alc, Tparl (1373392_at)” value (contr vs 5% vs 10% alcohol) was “YES”. The “sig down and spec alc, Transcribed locus (1377021_at)” value (contr vs 5% vs 10% alcohol) was “YES”, the “sig down and spec alc, Trp53rk_predicted (1379488_at)” value (contr vs 5% vs 10% alcohol) was “YES” and the “sig down and spec alc, Vps35_mapped (1372806_at)” value (contr vs 5% vs 10% alcohol) was “YES”. The “number of placental genes down-regulated after excluding genes overlapping with caloric restriction, high fat diet and SSRI” value (rat placenta) was 35 genes, the “number of placental genes up-regulated after excluding genes overlapping with caloric restriction, high fat diet and SSRI” value (rat placenta) was 7 genes and the “placental expression of TP53 regulating kinase (Trp53rk)” value [1] was “down-regulated”. For the same compound, the “placental expression of Zinc finger protein 365 (Zfp365)” value [1] was “up-regulated”, the “placental expression of cell division cycle associated 7 (Cdca7)” value [1] was “down-regulated” and the “placental expression of inositol polyphosphate-1-phosphatase (Inpp1)” value [1] was “down-regulated”. For the same compound, the “placental expression of peroxisomal biogenesis factor 6 (Pex6)” value [1] was “down-regulated”, the “placental expression of pleckstrin (Plek)” value [1] was “down-regulated” and the “Mean 5% expression, probe set 1370527_a_at (casein kinase 1, delta, Csnk1d)” value [2] was 9.839. The “Mean 5% expression, probe set 1380351_at” value [2] was 4.282, the “Mean 5% expression, probe set 1381613_at (Transcribed locus)” value [2] was 4.29 and the “Mean 5% expression, probe set 1384272_at (Zinc finger protein 365, Zfp365)” value [2] was 4.227. The “Mean 5% expression, probe set 1384691_at (Transcribed locus, weakly similar to XP_577161.1)” value [2] was 4.65, the “Mean 5% expression, probe set 1384793_at” value [2] was 4.485 and the “Mean 5% expression, probe set 1388932_at (laminin, alpha 5, Lama5)” value [2] was 9.683. The “Mean 5% expression, probe set 1391879_at (Transcribed locus)” value [2] was 4.547, the “number of probe sets up-regulated (0<5%<10% pattern)” value [3] was 8 probe sets and the “number of probe sets with reduced expression in exposed animals (0>5%>10% pattern)” value [3] was 57 probe sets. The “Mean 10% expression, probe set 1370527_a_at (casein kinase 1, delta, Csnk1d)” value [4] was 10.03, the “Mean 10% expression, probe set 1380351_at” value [4] was 4.908 and the “Mean 10% expression, probe set 1381613_at (Transcribed locus)” value [4] was 4.634. The “Mean 10% expression, probe set 1384272_at (Zinc finger protein 365, Zfp365)” value [4] was 4.517, the “Mean 10% expression, probe set 1384691_at (Transcribed locus, weakly similar to XP_577161.1)” value [4] was 5.112 and the “Mean 10% expression, probe set 1384793_at” value [4] was 4.761. The “Mean 10% expression, probe set 1388932_at (laminin, alpha 5, Lama5)” value [4] was 9.897 and the “Mean 10% expression, probe set 1391879_at (Transcribed locus)” value [4] was 4.937.
